Several values for one entry are separate records, joined by “and”; a condition that tells them apart may be missing. Equal values may be shown once.
System: nasal cilia
Assay: nasal ciliary beat frequency (CBF), whole field analysis over time
Type: cell-based
Design: Mean CBF (WFA): unit: Hz
Protocol: The ATP concentration inside the cell is typically 1-10 millimolar (mM). We started with an ATP concentration of 1 mg/ml based on literature data and from testing done by Dr. James Palmer at University of Pennsylvania on ATP concentration for increasing nasal ciliary beat frequency. […] 1 mg/ml from the below charts=1 mg/ml=1 gram per liter=1/507 g/mol=2 mM. Most intracellular ATP concentrations in animals fall within the range of 0.5-10 mM. [table]

[1] = Plate 1, elapsed 0:00:00, treatment of plate not stated
[2] = Plate 2, elapsed 0:00:00, ATP 1 mg/ml
[3] = Plate 2, elapsed 0:00:10, ATP 1 mg/ml
[4] = Plate 2, elapsed 0:00:30, ATP 1 mg/ml
[5] = Plate 2, elapsed 0:00:40, ATP 1 mg/ml
[6] = Plate 2, elapsed 0:00:50, ATP 1 mg/ml
[7] = Plate 2, elapsed 0:01:00, ATP 1 mg/ml
[8] = Plate 2, elapsed 0:01:10, ATP 1 mg/ml
[9] = Plate 2, elapsed 0:01:20, ATP 1 mg/ml
[10] = Plate 2, elapsed 0:01:30, ATP 1 mg/ml
[11] = Plate 2, elapsed 0:01:40, ATP 1 mg/ml
[12] = Plate 2, elapsed 0:01:50, ATP 1 mg/ml
[13] = Plate 2, elapsed 0:02:00, ATP 1 mg/ml
[14] = Plate 2, elapsed 0:02:10, ATP 1 mg/ml
[15] = Plate 2, elapsed 0:02:20, ATP 1 mg/ml
[16] = Plate 2, elapsed 0:02:30, ATP 1 mg/ml
[17] = Plate 2, elapsed 0:02:40, ATP 1 mg/ml
[18] = Plate 2, elapsed 0:02:50, ATP 1 mg/ml
[19] = Plate 2, elapsed 0:03:00, ATP 1 mg/ml
[20] = Plate 2, elapsed 0:03:10, ATP 1 mg/ml
[21] = Plate 2, elapsed 0:03:20, ATP 1 mg/ml
[22] = Plate 2, elapsed 0:03:30, ATP 1 mg/ml
[23] = Plate 2, elapsed 0:03:40, ATP 1 mg/ml
[24] = Plate 2, elapsed 0:03:50, ATP 1 mg/ml
[25] = Plate 2, elapsed 0:04:00, ATP 1 mg/ml
[26] = Plate 2, elapsed 0:04:10, ATP 1 mg/ml
[27] = Plate 2, elapsed 0:04:20, ATP 1 mg/ml
[28] = Plate 2, elapsed 0:04:30, ATP 1 mg/ml
[29] = Plate 2, elapsed 0:04:40, ATP 1 mg/ml
[30] = Plate 2, elapsed 0:04:50, ATP 1 mg/ml
[31] = Plate 2, elapsed 0:05:00, ATP 1 mg/ml
[32] = Plate 2, elapsed 0:05:10, ATP 1 mg/ml
[33] = Plate 2, elapsed 0:05:20, ATP 1 mg/ml
[34] = Plate 2, elapsed 0:05:30, ATP 1 mg/ml
[35] = Plate 2, elapsed 0:05:40, ATP 1 mg/ml
[36] = Plate 2, elapsed 0:05:50, ATP 1 mg/ml
[37] = Plate 2, elapsed 0:06:00, ATP 1 mg/ml
[38] = Plate 2, elapsed 0:06:10, ATP 1 mg/ml
[39] = Plate 2, elapsed 0:06:20, ATP 1 mg/ml
[40] = Plate 2, elapsed 0:06:30, ATP 1 mg/ml
[41] = Plate 2, elapsed 0:06:40, ATP 1 mg/ml
[42] = Plate 2, elapsed 0:06:50, ATP 1 mg/ml
[43] = Plate 2, elapsed 0:07:00, ATP 1 mg/ml
[44] = Plate 2, elapsed 0:07:10, ATP 1 mg/ml
[45] = Plate 2, elapsed 0:07:20, ATP 1 mg/ml
[46] = Plate 2, elapsed 0:07:30, ATP 1 mg/ml
[47] = Plate 2, elapsed 0:07:40, ATP 1 mg/ml
[48] = Plate 2, elapsed 0:07:50, ATP 1 mg/ml
[49] = Plate 2, elapsed 0:08:00, ATP 1 mg/ml

SMILES: Nc1ncnc2c1ncn2[C@@H]1O[C@H](COP(=O)(O)OP(=O)(O)OP(=O)(O)O)[C@@H](O)[C@H]1O [ATP, adenosine triphosphate]
- Active Area [1]: 82.86% and 60.42% and 53.54%
- Mean CBF (WFA) [1]: 6.75 and 6.14 and 5.59
- Active Area [2]: 22.19%
- Mean CBF (WFA) [2]: 8.06
- Active Area [3]: 44.1%
- Mean CBF (WFA) [3]: 7.41
- Active Area [4]: 49.49%
- Mean CBF (WFA) [4]: 7.42
- Active Area [5]: 49.6%
- Mean CBF (WFA) [5]: 7.5
- Active Area [6]: 48.61%
- Mean CBF (WFA) [6]: 7.55
- Active Area [7]: 42.47%
- Mean CBF (WFA) [7]: 7.66
- Active Area [8]: 43.64%
- Mean CBF (WFA) [8]: 7.75
- Active Area [9]: 45.62%
- Mean CBF (WFA) [9]: 7.82
- Active Area [10]: 36.91%
- Mean CBF (WFA) [10]: 7.92
- Active Area [11]: 40.43%
- Mean CBF (WFA) [11]: 7.99
- Active Area [12]: 43.13%
- Mean CBF (WFA) [12]: 7.95
- Active Area [13]: 41.96%
- Mean CBF (WFA) [13]: 8.01
- Active Area [14]: 43.36%
- Mean CBF (WFA) [14]: 8
- Active Area [15]: 42.03%
- Mean CBF (WFA) [15]: 8.03
- Active Area [16]: 15.64%
- Mean CBF (WFA) [16]: 7.96
- Active Area [17]: 37.46%
- Mean CBF (WFA) [17]: 8.02
- Active Area [18]: 40.07%
- Mean CBF (WFA) [18]: 8.02
- Active Area [19]: 38.29%
- Mean CBF (WFA) [19]: 8.08
- Active Area [20]: 38.85%
- Mean CBF (WFA) [20]: 8.1
- Active Area [21]: 37.75%
- Mean CBF (WFA) [21]: 8.09
- Active Area [22]: 36.48%
- Mean CBF (WFA) [22]: 8.07
- Active Area [23]: 37.41%
- Mean CBF (WFA) [23]: 8.07
- Active Area [24]: 36.73%
- Mean CBF (WFA) [24]: 8.12
- Active Area [25]: 37.22%
- Mean CBF (WFA) [25]: 8.11
- Active Area [26]: 38.13%
- Mean CBF (WFA) [26]: 8.09
- Active Area [27]: 36.96%
- Mean CBF (WFA) [27]: 8.12
- Active Area [28]: 36.02%
- Mean CBF (WFA) [28]: 8.12
- Active Area [29]: 36.21%
- Mean CBF (WFA) [29]: 8.06
- Active Area [30]: 34.77%
- Mean CBF (WFA) [30]: 8.05
- Active Area [31]: 37.11%
- Mean CBF (WFA) [31]: 8.12
- Active Area [32]: 34.86%
- Mean CBF (WFA) [32]: 8.08
- Active Area [33]: 35.53%
- Mean CBF (WFA) [33]: 8.09
- Active Area [34]: 36.15%
- Mean CBF (WFA) [34]: 8.22
- Active Area [35]: 38.41%
- Mean CBF (WFA) [35]: 8.15
- Active Area [36]: 38.05%
- Mean CBF (WFA) [36]: 8.13
- Active Area [37]: 39.37%
- Mean CBF (WFA) [37]: 8.17
- Active Area [38]: 39.15%
- Mean CBF (WFA) [38]: 8.14
- Active Area [39]: 37.86%
- Mean CBF (WFA) [39]: 8.15
- Active Area [40]: 31.72%
- Mean CBF (WFA) [40]: 8.11
- Active Area [41]: 35.94%
- Mean CBF (WFA) [41]: 8.21
- Active Area [42]: 36.95%
- Mean CBF (WFA) [42]: 8.22
- Active Area [43]: 28.86%
- Mean CBF (WFA) [43]: 8.23
- Active Area [44]: 36.92%
- Mean CBF (WFA) [44]: 8.2
- Active Area [45]: 38.3%
- Mean CBF (WFA) [45]: 8.24
- Active Area [46]: 37.18%
- Mean CBF (WFA) [46]: 8.25
- Active Area [47]: 36.54%
- Mean CBF (WFA) [47]: 8.23
- Active Area [48]: 35.67%
- Mean CBF (WFA) [48]: 8.22
- Active Area [49]: 37.37%
- Mean CBF (WFA) [49]: 8.17

— US20170252298A1, “Performance-Enhancing Nasal Irrigation” (Backed-by-Science, Inc., priority 2014, published 2017)
